Series [1] relates to TOP1 mRNA. Nature of the series: Inhibitory effects of modified sequences of siTOP1-1604 on TOP1 mRNA in PC-3 cells. It counts as cell-based, human. The settings on record: PC-3, siRNA 50 nM. The protocol:
PC-3 human prostate cancer cells were transfected with the modified siTOP1 according to the method in Example 2 at a siRNA working concentration of 50 nM. TOP1 mRNA levels were detected 48 h after the transfection. The control groups were Blank (Opti-MEM at the equal volume), Lipofectamine™ RNAiMAX (Lipo) transfection reagent, and the positive control unmodified siTOP-1604.

The nature of series [2]: Toxicity of LNP-siTOP1 and irinotecan on HCT116 cells (CCK-8 cell viability). It counts as cell-based, human. The settings on record: human, HCT116 colon cancer cells, HCT116, 72 h. The protocol: (§1) After 72 h of transfection, 10 μL of CCK-8 solution was added to each well, and the cells were cultured in the incubator with 5% CO2 at 37° C. for another 4 h. The absorbance value at 450 nm was measured using a microplate reader. Cell viability was calculated according to the following formula: […]
(§2) On the day before transfection, HCT116 human colon cancer cells were seeded into a 96-well cell culture plate at 5000 cells/well, the culture medium being IMDM containing 10% FBS and 1% Penicillin-Streptomycin, and after plating, the cell culture plate was placed in an incubator with 5% CO2 at 37° C. for 24 h to allow the cells to adhere to the wall. 3 replicate wells were made for each group. On the day of transfection, the culture medium was changed to an IMDM culture medium without antibiotics (containing 10% FBS). LNP-siTOP1-1604 diluted with Opti-MEM culture medium was added, and the working concentrations of the siRNA were 500, 200, 100, 50, 20, and 5 nM. The control groups were Blank (Opti-MEM at the equal volume) and the positive control drug, irinotecan, at concentrations of 500, 200, 100, 50, 20, 5, and 1 μM. The cell culture plate was placed in the incubator with 5% CO2 at 37° C., and the cells were cultured for another 72 h. The cell viability was detected according to the method in Example 3 (Table 10). Fitting was performed using Graphpad software.

Series [3] has as its system HCT116 human colon cancer cells. Described as above. It counts as cell-based. The note with it: Homo sapiens, HCT-116; HCT116, 72 h, CCK-8. The protocol: as §1, §2

[Ψ] = pseudouridine; d = 2'-deoxy (DNA); r = 2'-OH (RNA)

For “siTOP1-1604-m4: Pseudouridine-modified siTOP1-1604; sense strand SEQ ID NO: 55, antisense strand SEQ ID NO: 56 (sense GUGUGGACAAGAUCCGGAATT; antisense UUCCGGAUCUUGUCCACACTT; sense: sugars from the 5' end r19 d2, [Ψ] at 2, 4, 13, backbone not given here; antisense: sugars from the 5' end r19 d2, [Ψ] at 1, 2, 8, 10, 11, 13, backbone not given here)”, the “Expression of TOP1 mRNA inhibited to” value in series [1] (48 h, compared to the control groups) is given as 4.3%. Moreover, the “Relative expression level, mean value” in series [1] (48 h after transfection, Blank = 100.00) is reported as 4.30.
In the case of `CCc1c2c(nc3ccc(OC(=O)N4CCC(N5CCCCC5)CC4)cc13)-c1cc3c(c(=O)n1C2)COC(=O)[C@]3(O)CC` [Irinotecan], the viability (commonly a read-out of living cells in per cent, often relative to untreated cells) at 72 h, 1 µM in series [2] (1 μM) turned out to be 109%. Also, the viability at 72 h, 5 µM in series [2] (5 μM) is 55.4%. For the same compound, the viability at 72 h, 20 µM in series [2] (20 μM) was 31.8%. In addition, the viability at 72 h, 50 µM in series [2] (50 μM) turned out to be 16.9%. Moreover, the viability at 72 h, 100 µM in series [2] (100 μM) came out at 9.69%. Further, the viability at 72 h, 200 µM in series [2] (200 μM) came out at 8.18%. Besides, the viability at 72 h, 500 µM in series [2] (500 μM) worked out at 11.9%. For the same compound, in series [3], the IC50 (usually the midpoint of a concentration-inhibition curve) stood at 9.33 µM.

The values are drawn from US20260139254A1, “INTERFERING RNA FOR INHIBITING TOP1 GENE EXPRESSION AND USE THEREOF” (JENKEM TECHNOLOGY CO., LTD. (BEIJING), priority 2022, published 2026).
